Results as given in US10774071B2, “PD-1/PD-L1 inhibitors” (Gilead Sciences, Inc., priority 2018, dated 2020).

Legend:
[1] = target: PD-1/PD-L1 (Homo sapiens (Human), UniProt Q9NZQ7); test: PD-1/PD-L1 biochemical protein-protein interaction assay (ALPHA); type: binding; settings: 0.3 nM His tagged PD-L1, 2.5 nM biotinylated Fc-PD-1, Table 3B, read-out: IC50 PD-L1-PD1
[2] = target: PD-L1 (Homo sapiens (Human), UniProt Q9NZQ7); test: PD-L1/PD-L1 dimerization biochemical protein-protein interaction assay (ALPHA); type: binding; settings: 0.5 nM His tagged PD-L1 and 0.5 nM FLAG tagged PD-L1, Table 4B, read-out: AC50 PDL1 Dimer 1 nM
Chain of PD-L1 (Q9NZQ7 19-238): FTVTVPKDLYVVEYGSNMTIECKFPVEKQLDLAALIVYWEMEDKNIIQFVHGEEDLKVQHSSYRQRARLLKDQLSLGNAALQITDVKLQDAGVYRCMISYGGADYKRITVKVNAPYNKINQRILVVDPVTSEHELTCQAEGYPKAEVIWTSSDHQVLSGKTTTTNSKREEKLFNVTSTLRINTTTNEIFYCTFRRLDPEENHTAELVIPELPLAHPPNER
Chain of PD-L1 (Q9NZQ7 19-238): as above

Chain of PD-1/PD-L1 (Q9NZQ7 19-238): as above

Structure (SMILES) | IC50 [1] [nM] | AC50 [2] [nM]
COc1nc(-c2cccc(-c3cccc4c3CC[C@@H]4Oc3nc(OCc4cncc(Cl)c4)c(CNC4(C(=O)O)CC4)cc3Cl)c2Cl)ccc1CNC[C@@H]1CCC(=O)N1 [B-32] | 0.095 | 12.9
COc1nc(O[C@H]2CCc3c(-c4cccc(-c5cnc(CNC[C@@H]6CCC(=O)N6)c(OC)n5)c4Cl)cccc32)c(Cl)cc1CNC1CC(NC(C)=O)C1 (stereo partly drawn) [B-34] | 0.111 | 22.3
COc1nc(-c2cccc(-c3cccc4c3CC[C@@H]4Oc3nc(OC)c(CN4CC[C@@H](C(=O)O)C4)nc3Br)c2Cl)cnc1CNC[C@@H]1CCC(=O)N1 [B-37] | 0.064 | 28
COc1nc(-c2cccc(-c3cccc4c3CC[C@@H]4Oc3nc(OC)c(CNC[C@@H]4CCC(=O)N4)nc3Br)c2Cl)cnc1CNC[C@@H]1CCC(=O)N1 [B-38] | 0.095 | 46.5
COc1cc(-c2cccc(-c3cccc4c3CC[C@@H]4Oc3nc(OC)c(CN4CC5(C(=O)O)CCC4CC5)cc3Cl)c2Cl)ccc1CNC[C@@H]1CCC(=O)N1 [B-39] | 0.064 | 3.8
COc1cc(-c2cccc(-c3cccc4c3CC[C@@H]4Oc3nc(OC)c(CN4CC[C@@H](C(=O)O)C4)cc3Cl)c2Cl)ccc1CNC[C@@H]1CCC(=O)N1 [B-41] | 0.064 | 3.59
COc1cc(-c2cccc(-c3cccc4c3CC[C@@H]4Oc3nc(OC)c(CN4CC(C(=O)O)C4)cc3Cl)c2Cl)ccc1CNC[C@@H]1CCC(=O)N1 [B-42] | 0.064 | 12.5
COc1nc(O[C@H]2CCc3c(-c4cccc(-c5cnc(CNC[C@@H]6CCC(=O)N6)c(OC)n5)c4Cl)cccc32)c(Cl)cc1CN1CC(C(=O)O)C1 [B-43] | 0.064 | 44.3
COc1nc(-c2cccc(-c3cccc4c3CC[C@@H]4Oc3nc(OC)c(CN4CC(C(=O)O)C4)nc3Cl)c2Cl)cnc1CNC[C@@H]1CCC(=O)N1 [B-44] | 0.064 | 17.9
COc1nc(-c2cccc(-c3cccc4c3CC[C@@H]4Oc3nc(OC)c(CN4CC5(C(=O)O)CCC4CC5)nc3Cl)c2Cl)cnc1CNC[C@@H]1CCC(=O)N1 [B-45] | 0.064 | 20.2
COc1nc(-c2cccc(-c3cccc4c3CC[C@@H]4Oc3nc(OCc4cncc(Cl)c4)c(CN4CC5(C(=O)O)CCC4CC5)cc3Cl)c2Cl)ccc1CNC[C@@H]1CCC(=O)N1 [B-48] | 0.064 | 7.12
COc1nc(-c2cccc(-c3cccc4c3CC[C@@H]4Oc3nc(OCc4cncc(Cl)c4)c(CN4CC[C@H](C(=O)O)C4)cc3Cl)c2Cl)ccc1CNC[C@@H]1CCC(=O)N1 [B-49] | 0.064 | 19.1
COc1nc(-c2cccc(-c3cccc4c3CC[C@@H]4Oc3nc(OC)c(CN4CC5(C(=O)O)CCC4CC5)cc3Cl)c2Cl)ccc1CN[C@H]1CCCC[C@H]1O [B-50] | 0.064 | 26.1
COc1nc(-c2cccc(-c3cccc4c3CC[C@@H]4Oc3nc(OC)c(CN4CC5(C(=O)O)CCC4CC5)cc3Cl)c2Cl)ccc1CN1CC[C@@H](O)C1 [B-51] | 0.064 | 27.5
COc1nc(-c2cccc(-c3cccc4c3CC[C@@H]4Oc3nc(OC)c(CN4CC5(C(=O)O)CCC4CC5)cc3Cl)c2Cl)ccc1CN[C@@H]1CCC[C@@H]1O [B-52] | 0.095 | 46.4
COc1nc(-c2cccc(-c3cccc4c3CC[C@@H]4Oc3nc(OCc4ccc(-n5cccn5)nc4)c(CN4CC5(C(=O)O)CCC4CC5)cc3Cl)c2Cl)ccc1CNC[C@@H]1CCC(=O)N1 [B-56] | 0.189 | 41
COc1nc(O[C@H]2CCc3c(-c4cccc(-c5cc(C)c(CN6CC(C)(O)C6)c(OC)n5)c4Cl)cccc32)c(Cl)cc1CN1CC2(C(=O)O)CCC1CC2 [B-57] | 0.08 | 66.5
COc1nc(O[C@H]2CCc3c(-c4cccc(-c5cc(C)c(CN6CC(C)(O)C6)c(OC)n5)c4Cl)cccc32)c(Cl)cc1CN1CC[C@@H](C(=O)O)C1 [B-58] | 0.064 | 49.7
COc1nc(O[C@H]2CCc3c(-c4cccc(-c5cc(C)c(CN6CC(C)(O)C6)c(OC)n5)c4Cl)cccc32)c(Cl)cc1CN1CC(C(=O)O)C1 [B-59] | 0.113 | 107
COc1nc(O[C@H]2CCc3c(-c4cccc(-c5cc(C)c(CN6CC(C)(O)C6)c(OC)n5)c4Cl)cccc32)c(Cl)cc1CN1CC[C@H](C(=O)O)C1 [B-60] | 0.064 | 55.6
COc1nc(-c2cccc(-c3cccc4c3CC[C@@H]4Oc3nc(OC)c(CN4CC5(C(=O)O)CCC4CC5)cc3C(F)(F)F)c2Cl)ccc1CNC[C@@H]1CCC(=O)N1 [B-61] | 0.064 | 6.22

Structure (SMILES) | IC50 [1] [nM] | AC50 [2] [nM]
COc1nc(-c2cccc(-c3cccc4c3CC[C@@H]4Oc3nc(OC)c(CN4CC[C@@H](C(=O)O)C4)cc3C(F)(F)F)c2Cl)ccc1CNC[C@@H]1CCC(=O)N1 [B-62] | 0.064 | 9.3
COc1nc(-c2cccc(-c3cccc4c3CC[C@@H]4Oc3nc(OC)c(CN4CC(C(=O)O)C4)cc3C(F)(F)F)c2Cl)ccc1CNC[C@@H]1CCC(=O)N1 [B-63] | 0.064 | 7.82
COc1nc(-c2cccc(-c3cccc4c3CC[C@@H]4Oc3nc(OC)c(CN4CCC(NC(C)=O)C4)cc3Cl)c2Cl)ccc1CNC[C@@H]1CCC(=O)N1 (stereo partly drawn) [B-64] | 0.076 | 40.5
COc1nc(-c2cccc(-c3cccc4c3CC[C@@H]4Oc3nc(OC)c(CN4CC5(C(=O)O)CCC4CC5)cc3Cl)c2C#N)ccc1CNC[C@@H]1CCC(=O)N1 [B-68] | 0.064 | 48
COc1nc(O[C@H]2CCc3c(-c4cccc(-c5cnc(CNC[C@@H]6CCC(=O)N6)c(OC)n5)c4C#N)cccc32)c(Cl)cc1CN1CC[C@@H](C(=O)O)C1 [B-69] | 0.064 | 156
COc1nc(-c2cccc(-c3cccc4c3CC[C@@H]4Oc3nc(OC)c(CN4CC(C(=O)O)C5(CCOC5)C4)cc3Cl)c2Cl)ccc1CNC[C@@H]1CCC(=O)N1 (stereo partly drawn) [B-70] | 0.064 | 31.9
COc1nc(-c2cccc(-c3cccc4c3CC[C@@H]4Oc3nc(OC)c(CN4CC(C(=O)O)C5(CCC5)C4)cc3Cl)c2Cl)ccc1CNC[C@@H]1CCC(=O)N1 (stereo partly drawn) [B-71] | 0.064 | 35.7
COc1nc(-c2cccc(-c3cccc4c3CC[C@@H]4Oc3nc(OC)c(CN4CC(C(=O)O)C5(CC5)C4)cc3Cl)c2Cl)ccc1CNC[C@@H]1CCC(=O)N1 (stereo partly drawn) [B-72] | 0.064 | 25.8
COc1nc(-c2cccc(-c3cccc4c3CC[C@@H]4Oc3nc(OC)c(CN4CC[C@@H](C(=O)O)C4)cc3Cl)c2C#N)ccc1CNC[C@@H]1CCC(=O)N1 [B-73] | 0.064 | 81.7
COc1nc(-c2cccc(-c3cccc4c3CC[C@@H]4Oc3nc(OC)c(CN4CC(C(=O)O)C4)cc3Cl)c2C#N)ccc1CNC[C@@H]1CCC(=O)N1 [B-74] | 0.064 | 94.1
COc1nc(-c2cccc(-c3cccc4c3CC[C@@H]4Oc3nc(OC)c(CN4CC5(C(=O)O)CCC4CC5)cc3Cl)c2C)ccc1CNC[C@@H]1CCC(=O)N1 [B-77] | 0.064 | 60.4
COc1nc(-c2cccc(-c3cccc4c3CC[C@@H]4Oc3nc(OC)c(CN4CC[C@@H](C(=O)O)C4)cc3Cl)c2C)ccc1CNC[C@@H]1CCC(=O)N1 [B-78] | 0.064 | 57.9
COc1nc(O[C@H]2CCc3c(-c4cccc(-c5cnc(CNC[C@@H]6CCC(=O)N6)c(OC)n5)c4C)cccc32)c(Cl)cc1CN1CC2(C(=O)O)CCC1CC2 [B-80] | 0.064 | 46.9
COc1nc(O[C@H]2CCc3c(-c4cccc(-c5cnc(CNC[C@@H]6CCC(=O)N6)c(OC)n5)c4C)cccc32)c(Cl)cc1CN1CC[C@@H](C(=O)O)C1 [B-81] | 0.064 | 118
COc1nc(-c2cccc(-c3cccc4c3CC[C@@H]4Oc3nc(OC)c(CN4CCN(C)C(C(=O)O)C4)cc3Cl)c2Cl)ccc1CNC[C@@H]1CCC(=O)N1 (stereo partly drawn) [B-82] | 0.064 | 37.8
COc1nc(-c2cccc(-c3cccc4c3CC[C@@H]4Oc3nc(OC)c(CN4C[C@@H]5CCC[C@]5(C(=O)O)C4)cc3Cl)c2Cl)ccc1CN1CC(C)(O)C1 [B-83] | 0.064 | 211
COc1nc(-c2cccc(-c3cccc4c3CC[C@@H]4Oc3nc(OC)c(CN4CC[C@@H](C(=O)O)C4)cc3Cl)c2Cl)ccc1CN1CC(C)(O)C1 [B-85] | 0.064 | 50.3
CNC(=O)C1CCN(Cc2cc(Cl)c(O[C@H]3CCc4c(-c5cccc(-c6ccc(CN7CC(C)(O)C7)c(OC)n6)c5Cl)cccc43)nc2OC)C1 (stereo partly drawn) [B-86] | 0.235 | 109
CNC(=O)C1CCN(Cc2ccc(-c3cccc(-c4cccc5c4CC[C@@H]5Oc4nc(OC)c(CN5CCC(C(=O)NC)C5)cc4Cl)c3Cl)nc2OC)C1 (stereo partly drawn) [B-87] | 0.064 | 90.7
CNC(=O)C1CCN(Cc2cc(Cl)c(O[C@H]3CCc4c(-c5cccc(-c6ccc(CNC[C@@H]7CCC(=O)N7)c(OC)n6)c5Cl)cccc43)nc2OC)C1 (stereo partly drawn) [B-88] | 0.064 | 26.4
CNC(=O)CCNCc1ccc(-c2cccc(-c3cccc4c3CC[C@@H]4Oc3nc(OC)c(CNCCC(=O)NC)cc3Cl)c2Cl)nc1OC [B-89] | 0.387 | 85
